Laboratory results as given in article PMC12543283, “TastepepAI: An artificial intelligence platform for taste peptide de novo design” (PLOS Computational Biology, 2025).
Ends that are not written are not given here.

How the values were obtained:
[1] = test system: human bronchial epithelial cells (BEAS-2B)
[2] = test system: human pancreatic ductal epithelial cells (HPNE)
[3] = test system: human umbilical vein endothelial cells (HUVEC)
[4] = Electronic tongue analysis (Taste-Sensing System SA 402B); parameters: unit not given here; settings: reference solution 30 mM KCl + 0.3 mM tartaric acid as baseline, first measurement excluded; for Umami: sensor AAE; for Umami / Bitter / Sweet: detection threshold 0, room temperature; for Umami / Bitter / Sour / Salty: four replicates; for Sour: detection threshold -13, room temperature; for Salty: detection threshold -6, room temperature; for Sweet: measured five times
Description: Taste characteristics were analyzed using the electronic tongue system E-tongue (Taste-Sensing System SA 402B, Intelligent Sensor Technology Co. Ltd., Japan). The system was equipped with five specific sensor probes for detecting sourness (CA0), saltiness (CT0), bitterness (C00), sweetness (GL1), and umami (AAE). Samples were tested at concentrations of 0.1 mg/mL and 1.0 mg/mL. Prior to experiments, sensors were activated by immersion in a reference solution (30 mM KCl and 0.3 mM tartaric acid) for 24 h. A 30 min self-diagnostic procedure was performed before each measurement to ensure data accuracy. The reference solution served both as a cleaning solution and standard solution for taste signal calibration. According to the manufacturer’s instructions, using the reference solution as baseline, the detection thresholds were set at −13 for sourness, −6 for saltiness, and 0 for other taste modalities. Two cleaning solutions were employed for electrode maintenance: (1) 30% ethanol solution containing 100 mM HCl for negative charge reference electrodes, and (2) 30% ethanol solution containing 100 mM KCl and 10 mM KOH for positive charge reference electrodes. All taste measurements were performed at room temperature with four replicates, except for sweetness which was measured five times. The first measurement data were excluded from analysis.

[5] = test system: human embryonic kidney cells (HEK293T)
Description: The cytotoxicity of 73 synthetic peptides was evaluated using four human cell lines: human pancreatic ductal epithelial cells (HPNE), human embryonic kidney cells (HEK293T), human umbilical vein endothelial cells (HUVEC), and human bronchial epithelial cells (BEAS-2B). When cell density reached 70% confluence, the complete culture medium was replaced with serum-free maintenance medium, and peptides were added at a final concentration of 100 μM for 36 h. Control groups received only serum-free maintenance medium without peptides. Cell proliferation was assessed using the CCK-8 assay kit (Solarbio, CA1210) according to the manufacturer’s instructions.

Row | Substance | Average cell viability, BEAS-2B [1] | Cell viability, BEAS-2B, Data1 [1] | Cell viability, BEAS-2B, Data2 [1] | Cell viability, BEAS-2B, Data3 [1] | Average cell viability, HPNE [2] | Cell viability, HPNE, Data1 [2] | Cell viability, HPNE, Data2 [2] | Cell viability, HPNE, Data3 [2] | Average cell viability, HUVEC [3] | Cell viability, HUVEC, Data1 [3] | Cell viability, HUVEC, Data2 [3] | Cell viability, HUVEC, Data3 [3] | Umami ([4]; peptide 0.1 mg/mL) | Umami ([4]; peptide 1 mg/mL) | Bitter ([4]; sensor C00, peptide 0.1 mg/mL) | Bitter ([4]; sensor C00, peptide 1 mg/mL) | Sour ([4]; sensor CA0, peptide 0.1 mg/mL) | Sour ([4]; sensor CA0, peptide 1 mg/mL) | Salty ([4]; sensor CT0, peptide 0.1 mg/mL) | Salty ([4]; sensor CT0, peptide 1 mg/mL) | other results
1 | DQEPVE [TaPep44] | 101.53 | 108.18 | 97.51 | 98.90 | 105.06 | 112.51 | 118.30 | 84.36 | 109.31 | 108.41 | 112.00 | 107.53 | 0.51 | -6.35 | 7.74 | 3.13 | -0.62 | 14.96 | -19.30 | 10.03 | Sweet ([4]; sensor GL1, peptide 0.1 mg/mL): 3.94; Sweet ([4]; sensor GL1, peptide 1 mg/mL): -11.10; Average cell viability, HEK293T [5]: 102.43; Cell viability, HEK293T, Data1 [5]: 105.71; Cell viability, HEK293T, Data2 [5]: 98.14; Cell viability, HEK293T, Data3 [5]: 103.44
2 | DQKVLA [TaPep3] | 108.77 | 109.77 | 102.49 | 114.06 | 93.24 | 97.04 | 98.74 | 83.96 | 98.83 | 114.40 | 89.41 | 92.68 | 2.16 | -4.90 | 7.84 | 2.95 | -4.64 | 12.21 | -20.13 | 13.20 | Sweet ([4]; sensor GL1, peptide 0.1 mg/mL): 7.95; Sweet ([4]; sensor GL1, peptide 1 mg/mL): -6.65; Average cell viability, HEK293T [5]: 94.20; Cell viability, HEK293T, Data1 [5]: 93.79; Cell viability, HEK293T, Data2 [5]: 84.04; Cell viability, HEK293T, Data3 [5]: 104.76
3 | EDGPHGD [TaPep45] | 94.75 | 89.83 | 99.50 | 94.92 | 101.66 | 107.42 | 100.73 | 96.84 | 98.64 | 103.46 | 90.77 | 101.70 | 0.96 | -5.11 | 7.77 | 4.03 | -1.77 | 12.61 | -19.03 | 9.35 | Sweet ([4]; sensor GL1, peptide 0.1 mg/mL): 4.54; Sweet ([4]; sensor GL1, peptide 1 mg/mL): -4.05; Average cell viability, HEK293T [5]: 97.35; Cell viability, HEK293T, Data1 [5]: 98.99; Cell viability, HEK293T, Data2 [5]: 96.25; Cell viability, HEK293T, Data3 [5]: 96.81
4 | EEVPITD [TaPep46] | 111.37 | 117.25 | 103.29 | 113.56 | 104.39 | 107.62 | 107.82 | 97.74 | 101.12 | 105.61 | 97.55 | 100.19 | 1.60 | -4.41 | 7.55 | 4.18 | -3.21 | 10.78 | -21.33 | 4.55 | Sweet ([4]; sensor GL1, peptide 0.1 mg/mL): 6.32; Sweet ([4]; sensor GL1, peptide 1 mg/mL): -3.59; Average cell viability, HEK293T [5]: 100.85; Cell viability, HEK293T, Data1 [5]: 99.94; Cell viability, HEK293T, Data2 [5]: 100.60; Cell viability, HEK293T, Data3 [5]: 102.02
5 | EFPEQN [TaPep17] | 109.94 | 112.36 | 107.58 | 109.87 | 92.31 | 86.66 | 92.25 | 98.04 | 96.70 | 94.76 | 94.12 | 101.22 | 1.17 | -5.94 | 7.25 | 3.52 | -2.22 | 14.54 | -21.65 | -0.53 | Sweet ([4]; sensor GL1, peptide 0.1 mg/mL): 5.23; Sweet ([4]; sensor GL1, peptide 1 mg/mL): -5.15; Average cell viability, HEK293T [5]: 98.68; Cell viability, HEK293T, Data1 [5]: 94.45; Cell viability, HEK293T, Data2 [5]: 102.97; Cell viability, HEK293T, Data3 [5]: 98.61
6 | EKGVQ [TaPep64] | 103.99 | 103.09 | 103.59 | 105.28 | 98.34 | 89.85 | 95.04 | 110.12 | 104.98 | 101.54 | 110.56 | 102.82 | 1.91 | -4.02 | 7.39 | 3.04 | -4.25 | 9.90 | -21.79 | 10.50 | Sweet ([4]; sensor GL1, peptide 0.1 mg/mL): 4.85; Sweet ([4]; sensor GL1, peptide 1 mg/mL): -4.54; Average cell viability, HEK293T [5]: 103.19; Cell viability, HEK293T, Data1 [5]: 103.53; Cell viability, HEK293T, Data2 [5]: 102.87; Cell viability, HEK293T, Data3 [5]: 103.15
7 | EPKVLV [TaPep54] | 102.43 | 95.01 | 108.18 | 104.09 | 100.23 | 115.91 | 95.44 | 89.35 | 110.64 | 113.84 | 114.72 | 103.38 | 3.06 | -3.47 | 7.63 | 2.50 | -7.11 | 8.51 | -20.20 | 10.59 | Sweet ([4]; sensor GL1, peptide 0.1 mg/mL): 9.28; Sweet ([4]; sensor GL1, peptide 1 mg/mL): -6.29; Average cell viability, HEK293T [5]: 102.24; Cell viability, HEK293T, Data1 [5]: 103.15; Cell viability, HEK293T, Data2 [5]: 102.49; Cell viability, HEK293T, Data3 [5]: 101.07
